Measured values taken from patent US8945865B2, “Method for screening for compound capable of enhancing or inhibiting OATP1B1 transport activity, and method for determining expression level of OATP1B1” (Eisai R&D Management Co., Ltd., priority 2011, dated 2015).
pKi: −log10 of the molar value.

Tests used:
OATP1B1 [1] = biological target: T1, OATP1B1 (Homo sapiens, UniProt Q9Y6L6, N130D); test: OATP1B1 inhibition, DCF method (fluorescent substrate)
T1 sequence (Q9Y6L6 1-691 N130D): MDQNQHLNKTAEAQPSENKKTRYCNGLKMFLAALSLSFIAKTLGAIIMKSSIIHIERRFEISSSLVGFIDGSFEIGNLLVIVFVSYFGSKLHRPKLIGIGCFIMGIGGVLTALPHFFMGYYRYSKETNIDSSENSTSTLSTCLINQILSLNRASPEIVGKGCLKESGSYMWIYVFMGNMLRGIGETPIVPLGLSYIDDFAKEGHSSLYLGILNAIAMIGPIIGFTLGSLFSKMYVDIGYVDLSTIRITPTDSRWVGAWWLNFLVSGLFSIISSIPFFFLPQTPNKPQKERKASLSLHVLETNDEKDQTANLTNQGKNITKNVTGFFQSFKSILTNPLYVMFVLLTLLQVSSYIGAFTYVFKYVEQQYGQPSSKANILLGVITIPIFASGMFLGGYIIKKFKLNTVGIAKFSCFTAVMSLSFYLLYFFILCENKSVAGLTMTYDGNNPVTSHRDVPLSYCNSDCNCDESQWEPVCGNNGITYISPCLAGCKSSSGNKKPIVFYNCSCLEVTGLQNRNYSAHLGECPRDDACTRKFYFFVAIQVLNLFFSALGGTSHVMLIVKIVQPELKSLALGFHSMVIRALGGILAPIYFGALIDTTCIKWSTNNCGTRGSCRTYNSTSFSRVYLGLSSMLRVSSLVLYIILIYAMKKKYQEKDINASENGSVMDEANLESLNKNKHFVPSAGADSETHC

OATP1B1 [2] = biological target: T1, OATP1B1; test: OATP1B1 inhibition, conventional RI method (radiolabeled estradiol-17β-D-glucuronide)
Experimental: In the conventional RI method, radiolabeled estradiol-17β-D-glucuronide (EG) was used. […] Subsequently, the cells were washed with an ice-cold KH buffer three times and then solubilized with an aqueous 0.1 N NaOH solution, and after neutralization with an aqueous 1 N HCl solution, the radioactivity taken up by the cells was measured.

human hepatocytes [3] = test: Effect of OATP inhibitors on DCF uptake by human hepatocytes; conditions: inhibitor final 10 μM, 37° C.; reduced to the level comparable to the uptake at 4° C.
Experimental: (§1) Human hepatocytes were prepared as in Example 6, and a hepatocyte suspension was prepared at 1×10^6 cells/mL.

OATP1B1 [4] = biological target: T1, OATP1B1
Experimental: The Km and Vmax were calculated by the following Michaelis-Menten equation. […] Each parameter represents the mean value of four independent experiments.

OATP1B1 [5] = biological target: T1, OATP1B1; test: Substrate specificity of fluorescein derivatives: uptake by HEK-293 cells forcedly expressing OATP1B1; assay type: in vitro ADME; design: Expression vectors, pcDNA3.1 vectors (Invitrogen Corporation), carrying the resulting genes were respectively introduced into HEK-293 cells; expressed in transfected cells; host or cells: HEK-293 cells, pcDNA3.1 vector, hygromycin selection; conditions: 1 μM dye, 37° C., 5 minutes, compared with OATP1B3 and OATP2B1
Experimental: Complementary DNAs of OATP1B1, OATP1B3, and OATP2B1 (respectively shown by SEQ ID NOs: 2, 3, and 4) were cloned by RT-PCR using human liver total RNA (Invitrogen Corporation) as a template and the following primers: […]
Expression vectors, pcDNA3.1 vectors (Invitrogen Corporation), carrying the resulting genes were respectively introduced into HEK-293 cells by lipofection using Lipofectamin 2000 (Invitrogen Corporation). The cells were cultured in Hygromycin-containing selective media to produce HEK-293 cells forcedly expressing OATP1B1, OATP1B3, and OATP2B1, respectively.

human hepatocytes [6] = test system: human hepatocytes
Experimental: as §1

OAT3 = biological target: T2, OAT3 (Homo sapiens, UniProt Q8TCC7); test: Substrate specificity of fluorescein derivatives on OAT3 (same method); conditions: FIG. 1(b), same method as Example 1
T2 sequence (Q8TCC7 1-542): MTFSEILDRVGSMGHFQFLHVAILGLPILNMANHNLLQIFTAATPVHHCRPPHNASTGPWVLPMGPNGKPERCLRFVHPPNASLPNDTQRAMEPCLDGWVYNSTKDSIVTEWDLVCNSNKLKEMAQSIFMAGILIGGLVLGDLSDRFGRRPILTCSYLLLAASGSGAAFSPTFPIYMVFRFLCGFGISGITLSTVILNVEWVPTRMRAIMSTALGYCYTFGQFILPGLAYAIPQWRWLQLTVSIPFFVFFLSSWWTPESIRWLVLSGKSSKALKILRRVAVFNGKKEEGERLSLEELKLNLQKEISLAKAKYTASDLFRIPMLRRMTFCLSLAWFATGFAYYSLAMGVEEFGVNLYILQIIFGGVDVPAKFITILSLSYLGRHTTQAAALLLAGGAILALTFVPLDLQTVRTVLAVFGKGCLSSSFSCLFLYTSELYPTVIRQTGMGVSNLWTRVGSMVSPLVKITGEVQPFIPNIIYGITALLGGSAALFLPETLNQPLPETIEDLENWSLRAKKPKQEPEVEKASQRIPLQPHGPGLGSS
Experimental: The above cells were seeded in a poly-D-lysine-coated dish at 4×10^5 cells/well. The medium was replaced with a KH buffer, and various fluorescent dyes dissolved in DMSO were added to the respective HEK-293 cells such that the final concentration in the KH buffer was 1 μM, followed by incubation at 37° C. for 5 minutes. Subsequently, the cells were washed with an ice-cold KH buffer three times and were then solubilized with an aqueous 0.1 N NaOH solution, and the fluorescence intensity of the fluorescent dye taken up by the cells was measured (excitation wavelength: 490 nm, fluorescence wavelength: 515 nm).
In order to quantitatively measure the amount of fluorescent compound taken up by the cells, a calibration curve showing the fluorescence intensity per unit fluorescent compound was prepared in advance. Based on this calibration curve, the measured fluorescence intensity was converted into the fluorescent compound per well (pmol/well or μL/well), which was divided by the total protein amount (mg protein/well) of the solubilized cells (standardization) to convert into the fluorescent compound amount per unit protein (pmol/mg protein or μL/mg protein).

OATP1B1 [7] = biological target: T1, OATP1B1; test: Time profiles of the uptake of DCF by OATP1B1; assay type: in vitro ADME; design: Expression vectors, pcDNA3.1 vectors (Invitrogen Corporation), carrying the resulting genes were respectively introduced into HEK-293 cells; expressed in transfected cells; host or cells: HEK-293 cells, pcDNA3.1 vector, hygromycin selection; conditions: 0.1, 1 and 10 μM DCF, 37° C., 1 to 30 min
Experimental: The cells were sampled at the incubation times of 1 min, 5 min, 10 min, and 30 min, washed with an ice-cold KH buffer three times, and then solubilized with an aqueous 0.1 N NaOH solution, and the fluorescence intensity of the fluorescent dye taken up by the cells was measured as in Example 1 (excitation wavelength: 490 nm, fluorescence wavelength: 515 nm).

human hepatocytes [8] = test: Time/temperature-dependent uptake of DCF by human hepatocytes; assay type: in vitro ADME; conditions: 37° C. versus 4° C., 0.5 to 5 min, cryopreserved human hepatocytes
Experimental: Cryopreserved human hepatocytes and cryopreserved hepatocytes recovery medium (CHRM) were purchased from Invitrogen Corporation. The cryopreserved human hepatocytes were thawed in a water bath at 37° C. and were added to the CHRM prewarmed at 37° C. After centrifugation at room temperature, the supernatant was discarded, and a hepatocyte suspension at 1×10^6 cells/mL was prepared in ice-cold KH buffer and stored on ice. […] The hepatocytes were incubated at 37° C. and 4° C., respectively, for 0 to 5 minutes. […] Specifically, 80 μL of the hepatocyte suspension was collected and added to a centrifugal tube containing 50 μL of oil (specific gravity: 1.015, Sigma-Aldrich Co.) and 100 μL of an aqueous 2 N NaOH solution under the oil layer, and centrifugation was performed at 10,000 g for 20 seconds. By the centrifugation, the hepatocytes passed through the oil layer and were solubilized with an aqueous 2 N NaOH solution.

OATP1B1 [9] = biological target: T1, OATP1B1; test: Effect of known OATP inhibitors on OATP1B1-mediated uptake of DCF; conditions: DCF 3 μM, inhibitor 10 and 30 μM
[10] = read-out: Ki (DCF), substrate DCF 3 μM, HEK-293 cells forcedly expressing OATP1B1, 37° C., 5 minutes
[11] = read-out: Ki (EG), substrate radiolabeled EG 0.01 μM, HEK-293 cells forcedly expressing OATP1B1, 37° C., 5 minutes

Row | pKi (OATP1B1 [1]) | pKi (OATP1B1 [2]) | Structure (SMILES) | also measured
1 | – | – | O=C1OC(c2ccc(O)c(S(=O)(=O)O)c2)(c2ccc(O)c(S(=O)(=O)O)c2)c2c(Br)c(Br)c(Br)c(Br)c21 [BSP, bromosulfophthalein] | pKi (OATP1B1 [1]; [10]): 7.04; pKi (OATP1B1 [2]; [11]): 7.14; DCF uptake by human hepatocytes in presence of inhibitor (human hepatocytes [3]): reduced
2 | < 3.52 | < 3.52 | CN/C(=N/CCSCc1nc[nH]c1C)NC#N [Cimetidine] | –
3 | – | – | O=C1OC2(c3cc(Cl)c(O)cc3Oc3cc(O)c(Cl)cc32)c2ccccc21 [DCF, Dichlorofluorescein] | Km (OATP1B1 [4]): 7.22 µM; uptake of fluorescent dye among the combinations of fluorescent dye and transporters tested (OATP1B1 [5]): highest uptake; Km (human hepatocytes [6]): 38.6 µM; substrate for OAT3 (OAT3): not a satisfactory substrate; uptake amount of DCF by HEK-293 cells forcedly expressing OATP1B1 (OATP1B1 [7]): increases over time and depends on the concentration of added DCF; transporter-mediated uptake of DCF by human hepatocytes (human hepatocytes [8]): increases over time
4 | – | – | C[C@]12CC[C@@H]3c4ccc(OS(=O)(=O)O)cc4CC[C@H]3[C@@H]1CCC2=O [ES, estrone-3-sulfate] | pKi (OATP1B1 [1]; [10]): 7.10; concentration dependence of inhibition of OATP1B1-mediated DCF uptake (OATP1B1 [9]): inhibition depends on the concentrations; pKi (OATP1B1 [2]; [11]): 7.11
5 | 5.16 | 5.38 | CC[C@H]1OC(=O)[C@H](C)[C@@H](O[C@H]2C[C@@](C)(OC)[C@@H](O)[C@H](C)O2)[C@H](C)[C@@H](O[C@@H]2O[C@H](C)C[C@H](N(C)C)[C@H]2O)[C@](C)(O)C[C@@H](C)C(=O)[C@H](C)[C@@H](O)[C@]1(C)O [Erythromycin] | –
6 | 4.81 | 4.91 | CC(=O)N1CCN(c2ccc(OCC3COC(Cn4ccnc4)(c4ccc(Cl)cc4Cl)O3)cc2)CC1 (stereo not drawn) [Ketoconazole] | –
7 | < 3.52 | < 3.52 | CN(Cc1cnc2nc(N)nc(N)c2n1)c1ccc(C(=O)N[C@@H](CCC(=O)O)C(=O)O)cc1 [Methotrexate] | –
8 | 6.59 | 6.54 | CO[C@H]1/C=C/O[C@@]2(C)Oc3c(C)c(O)c4c(O)c(c(/C=N/N5CCN(C)CC5)c(O)c4c3C2=O)NC(=O)/C(C)=C\C=C\[C@H](C)[C@H](O)[C@@H](C)[C@@H](O)[C@@H](C)[C@H](OC(C)=O)[C@@H]1C [Rifampicin, rifampicin] | –
9 | 5.90 | 6.05 | C=CC[C@@H]1/C=C(\C)C[C@H](C)C[C@H](OC)[C@H]2O[C@@](O)(C(=O)C(=O)N3CCCC[C@H]3C(=O)O[C@H](/C(C)=C/[C@@H]3CC[C@@H](O)[C@H](OC)C3)[C@H](C)[C@@H](O)CC1=O)[C@H](C)C[C@@H]2OC [Tacrolimus] | –
10 | – | – | C[C@]12CC[C@@H]3c4ccc(O)cc4CC[C@H]3[C@@H]1CC[C@@H]2O[C@@H]1O[C@H](C(=O)O)[C@@H](O)[C@H](O)[C@H]1O [estradiol-17β-D-glucuronide] | concentration dependence of inhibition of OATP1B1-mediated DCF uptake (OATP1B1 [9]): inhibition depends on the concentrations

Row | Structure (SMILES) | pKi (OATP1B1 [1]) | pKi (OATP1B1 [2]) | also measured
11 | C[C@H](CCC(=O)NCCS(=O)(=O)O)[C@H]1CC[C@H]2[C@@H]3[C@H](O)C[C@@H]4C[C@H](O)CC[C@]4(C)[C@H]3C[C@H](O)[C@]12C [Taurocholic acid] | 5.06 | 4.76 | –
